Test results published in the supplement of paper PMC11061612.

Assays:
[1] = compound: C1CC(C1)(C(=O)[O-])C(=O)[O-].N.N.[Pt+2] [Carboplatin]; details: max 10 µM
Summary of the method: (§1)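 In 1536-well plates, cancer cell lines in 7.5 μl DMEM/F12 or RPMI with 10% FBS spent 24 hours at 37°C and 5% CO2 and were then dosed for 72 hours with final DMSO typically 0.2%. Viability was read by CellTiter-Glo 2.0 luminescence and scaled between blank-well and DMSO-well means. The single-agent IC50 was fitted from dose responses using a logistic curve in a non-linear mixed effects model, and that logistic curve had two parameters.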

[2] = compound: C1CN(CCC1(C(=O)N[C@@H](CCO)C2=CC=C(C=C2)Cl)N)C3=NC=NC4=C3C=CN4 [AZD5363]; details: max 10 µM
Summary of the method: as §1

[3] = compound: C=CCn1c(=O)c2cnc(Nc3ccc(N4CCN(C)CC4)cc3)nc2n1-c1cccc(C(C)(C)O)n1 [AZD1775]; details: max 3 µM
Summary of the method: as §1

[4] = compound: CC(=O)Nc1cccc(-n2c(=O)n(C3CC3)c(=O)c3c(Nc4ccc(I)cc4F)n(C)c(=O)c(C)c32)c1 [Trametinib]; details: max 1 µM
Summary of the method: as §1

[5] = compound: CC(=O)O[C@H]1C(=O)[C@@]2(C)[C@H]([C@H](OC(=O)c3ccccc3)[C@]3(O)C[C@H](OC(=O)[C@H](O)[C@@H](NC(=O)c4ccccc4)c4ccccc4)C(C)=C1C3(C)C)[C@]1(OC(C)=O)CO[C@@H]1C[C@@H]2O [Paclitaxel]; details: max 3 µM
Summary of the method: as §1

[6] = compound: CC(=O)c1c(C)c2cnc(Nc3ccc(N4CCNCC4)cn3)nc2n(C2CCCC2)c1=O [Palbociclib]; details: max 10 µM
Summary of the method: as §1

[7] = compound: CC(C)n1c(=O)n(C)c2cnc3cc(F)c(-c4ccc(OCCCN5CCCCC5)nc4)cc3c21 [AZD1390]; details: max 0.3 µM
Summary of the method: as §1

[8] = compound: CC1(C)CCC(CN2CCN(c3ccc(C(=O)NS(=O)(=O)c4ccc(NCC5CCOCC5)c([N+](=O)[O-])c4)c(Oc4cnc5[nH]ccc5c4)c3)CC2)=C(c2ccc(Cl)cc2)C1 [Venetoclax]; details: max 1 µM
Summary of the method: as §1

[9] = compound: CC1=C(C(=CC=C1)Cl)NC(=O)C2=CN=C(S2)NC3=CC(=NC(=N3)C)N4CCN(CC4)CCO [Dasatinib]; details: max 2 µM
Summary of the method: as §1

[10] = compound: CC1=CN2[C@@H](C1)C=NC3=CC(=C(C=C3C2=O)OC)OCCCCCOC4=C(C=C5C(=C4)N=C[C@@H]6CC(=CN6C5=O)C)OC [SG3199]; details: max 0.001 µM
Summary of the method: as §1

[11] = compound: CCN(CCO)CCCOc1ccc2c(Nc3cc(CC(=O)Nc4cccc(F)c4)[nH]n3)ncnc2c1 [AZD2811]; details: max 1 µM
Summary of the method: as §1

[12] = compound: CCc1c2c(nc3ccc(O)cc13)-c1cc3c(c(=O)n1C2)COC(=O)[C@]3(O)CC [SN-38]; details: max 0.3 µM
Summary of the method: as §1

[13] = compound: CN(C)CCCOc1ccc(-c2ccc3ncc4c(c3c2)n(C2CCOCC2)c(=O)n4C)cn1 [AZD0156]; details: max 3 µM
Summary of the method: as §1

[14] = compound: CN(CC[C@H](CSC1=CC=CC=C1)NC2=C(C=C(C=C2)S(=O)(=O)NC(=O)C3=CC=C(C=C3)N4CCC(CC4)[C@H](C5=CC=CC=C5C6=CC=C(C=C6)Cl)O)S(=O)(=O)C(F)(F)F)CCO [AZD4320]; details: max 1 µM
Summary of the method: as §1

[15] = compound: COc1cc(Nc2ncc3c(n2)-c2ccc(Cl)cc2C(c2c(F)cccc2OC)=NC3)ccc1C(=O)O [Alisertib]; details: max 10 µM
Summary of the method: as §1

[16] = compound: COc1cc([C@@H]2c3cc4c(cc3[C@@H](O[C@@H]3O[C@@H]5CO[C@@H](C)O[C@H]5[C@H](O)[C@H]3O)[C@H]3COC(=O)[C@H]23)OCO4)cc(OC)c1O [Etoposide]; details: max 10 µM
Summary of the method: as §1

[17] = compound: COc1cc2ncnc(Nc3ccc(F)c(Cl)c3)c2cc1OCCCN1CCOCC1 [Gefitinib]; details: max 10 µM
Summary of the method: as §1

[18] = compound: COc1cccc(OCCCN)c1-c1cc(Nc2cnc(C#N)cn2)n[nH]1 [Prexasertib]; details: max 1 µM
Summary of the method: as §1

[19] = compound: COc1cccc2c1C(=O)c1c(O)c3c(c(O)c1C2=O)C[C@@](O)(C(=O)CO)C[C@@H]3O[C@H]1C[C@H](N)[C@H](O)[C@H](C)O1 [Doxorubicin]; details: max 1 µM
Summary of the method: as §1

[20] = compound: COc1nnc2ccc(N3CCC(c4ccc(OCCN5CCN(C)C(=O)[C@H]5C)cc4)CC3)nn12 [AZD5153]; details: max 1 µM
Summary of the method: as §1

[21] = compound: CS(=O)(=O)CCNCc1ccc(-c2ccc3ncnc(Nc4ccc(OCc5cccc(F)c5)c(Cl)c4)c3c2)o1 [Lapatinib]; details: max 10 µM
Summary of the method: as §1

[22] = compound: C[C@@H](Nc1cc(F)cc(F)c1)c1cc(C(=O)N(C)C)cc2c(=O)cc(N3CCOCC3)oc12 [AZD8186]; details: max 10 µM
Summary of the method: as §1

[23] = compound: C[C@@H](Oc1cc(-c2cnn(C3CCNCC3)c2)cnc1N)c1c(Cl)ccc(F)c1Cl [Crizotinib]; details: max 10 µM
Summary of the method: as §1

[24] = compound: C[C@@H](c1ccc2nccn2c1)n1nnc2ncc(-c3cnn(C)c3)nc21 [Savolitinib]; details: max 1 µM
Summary of the method: as §1

[25] = compound: C[C@@H]1COCCN1C2=NC(=NC(=C2)C3(CC3)[S@](=N)(=O)C)C4=C5C=CNC5=NC=C4 [AZD6738]; details: max 10 µM
Summary of the method: as §1

[26] = compound: Cc1c2c(nn1C)CSCc1cc(n(C)n1)CSc1cc(c3ccccc3c1)OCCCc1c(C(=O)O)n(C)c3c-2c(Cl)ccc13 [AZD5991]; details: max 1 µM
Summary of the method: as §1

[27] = compound: Cc1cc2ncnn2cc1Nc1ncc2c(n1)n(C1CCOCC1)c(=O)n2C [AZD7648]; details: max 10 µM
Summary of the method: as §1

[28] = compound: Cc1nc(-c2cn3c(n2)-c2ccc(-c4cnn(C(C)(C)C(N)=O)c4)cc2OCC3)n(C(C)C)n1 [Taselisib]; details: max 10 µM
Summary of the method: as §1

[29] = compound: Cn1cnc2c(F)c(Nc3ccc(Br)cc3Cl)c(C(=O)NOCCO)cc21 [Selumetinib]; details: max 10 µM
Summary of the method: as §1

[30] = compound: N#Cc1cnc(Nc2cc(NC[C@H]3CNCCO3)c(C(F)(F)F)cn2)cn1 [SRA737]; details: max 10 µM
Summary of the method: as §1

[31] = compound: NC1(c2ccc(-c3nc4ccn5c(=O)[nH]nc5c4cc3-c3ccccc3)cc2)CCC1 [MK-2206]; details: max 10 µM
Summary of the method: as §1

[32] = compound: Nc1ccn([C@@H]2O[C@H](CO)[C@@H](O)C2(F)F)c(=O)n1 [Gemcitabine]; details: max 0.3 µM
Summary of the method: as §1

[33] = compound: O=C(Nc1ccc2[nH]nc(-c3ccncc3)c2c1)[C@@H]1CCN(CC(=O)N2CCN(c3ccc(-c4ncccn4)cc3)CC2)C1; details: max 5 µM
Summary of the method: as §1

[34] = compound: O=C(c1cc(Cc2n[nH]c(=O)c3ccccc23)ccc1F)N1CCN(C(=O)C2CC2)CC1 [Olaparib]; details: max 10 µM
Summary of the method: as §1

[35] = compound: O=c1[nH]cc(F)c(=O)[nH]1 [5-Fluorouracil]; details: max 20 µM
Summary of the method: as §1

Cell Line | IC50, cell viability 72 h [1] | IC50, cell viability 72 h [2] | IC50, cell viability 72 h [3] | IC50, cell viability 72 h [4] | IC50, cell viability 72 h [5] | IC50, cell viability 72 h [6] | IC50, cell viability 72 h [7] | IC50, cell viability 72 h [8] | IC50, cell viability 72 h [9] | IC50, cell viability 72 h [10] | IC50, cell viability 72 h [11] | IC50, cell viability 72 h [12] | IC50, cell viability 72 h [13] | IC50, cell viability 72 h [14] | IC50, cell viability 72 h [15] | IC50, cell viability 72 h [16] | IC50, cell viability 72 h [17] | IC50, cell viability 72 h [18] | IC50, cell viability 72 h [19] | IC50, cell viability 72 h [20] | IC50, cell viability 72 h [21] | IC50, cell viability 72 h [22] | IC50, cell viability 72 h [23] | IC50, cell viability 72 h [24] | IC50, cell viability 72 h [25] | IC50, cell viability 72 h [26] | IC50, cell viability 72 h [27] | IC50, cell viability 72 h [28] | IC50, cell viability 72 h [29] | IC50, cell viability 72 h [30] | IC50, cell viability 72 h [31] | IC50, cell viability 72 h [32] | IC50, cell viability 72 h [33] | IC50, cell viability 72 h [34] | IC50, cell viability 72 h [35]
KURAMOCHI (Ovarian Carcinoma) | > 10000 nM | > 10000 nM | 2440 nM | > 1000 nM | 1670 nM | > 10000 nM | > 300 nM | > 1000 nM | 100 nM | > 1 nM | > 1000 nM | 171 nM | > 3000 nM | > 1000 nM | > 10000 nM | > 10000 nM | > 10000 nM | 52.8 nM | > 1000 nM | 140 nM | > 10000 nM | > 10000 nM | > 10000 nM | > 1000 nM | 6970 nM | > 1000 nM | > 10000 nM | > 10000 nM | > 10000 nM | 4480 nM | > 10000 nM | > 300 nM | > 5000 nM | > 10000 nM | > 20000 nM
LB831-BLC (Bladder Carcinoma) | > 10000 nM | > 10000 nM | 2140 nM | > 1000 nM | 69.1 nM | > 10000 nM | > 300 nM | > 1000 nM | > 2000 nM | > 1 nM | > 1000 nM | 45.8 nM | > 3000 nM | > 1000 nM | > 10000 nM | > 10000 nM | > 10000 nM | > 1000 nM | 821 nM | > 1000 nM | > 10000 nM | > 10000 nM | > 10000 nM | > 1000 nM | > 10000 nM | > 1000 nM | > 10000 nM | 5820 nM | > 10000 nM | > 10000 nM | > 10000 nM | 202 nM | > 5000 nM | > 10000 nM | > 20000 nM
LS-180 (Colorectal Carcinoma) | > 10000 nM | > 10000 nM | 2030 nM | 74.4 nM | 30.5 nM | 9720 nM | > 300 nM | > 1000 nM | > 2000 nM | > 1 nM | > 1000 nM | 21.1 nM | > 3000 nM | > 1000 nM | 7410 nM | 1920 nM | > 10000 nM | 103 nM | 168 nM | 673 nM | > 10000 nM | > 10000 nM | > 10000 nM | > 1000 nM | 3420 nM | > 1000 nM | > 10000 nM | 2160 nM | 2680 nM | > 10000 nM | > 10000 nM | 11.8 nM | 2850 nM | > 10000 nM | > 20000 nM
